From patent US12213479B2, “Monoterpenoid/phenylpropanoid-containing compounds and methods of their making and use as herbicides” (KITTRICH CORPORATION, priority 2016, dated 2025)

System: Waterhemp (Amaranthus tuberculatus)
Assay: Toxicity assay (probit LC50), waterhemp
Format: in vivo
From the text: Waterhemp seeds were obtained from the Department of Agronomy at Iowa State University. Individual seeds were sown for each pot (1.5″ wide×3″ deep) with approximately 7.5 g of soil for each plot. Five seeds/plot was sown into numerous plots. After one month of germination, germinated plants were counted in each plot and this number was used for the total number of plants challenged per plot in the toxicity assessment.
The total number of plants were counted in each plot in 24×6 hexagonal small plot planter tray. The number of germinated seeds in each plot was enumerated after one month, and for each plot this number was recorded and used as the total for each plot. Differing concentrations of thymyloxyacetic acid was applied in 5% Triton-X 100 and 1:1 molar ratio potassium hydroxide:thymyloxyacetic acid to aid in the solubility of the compound in water. Ten mL of solution was applied to each plot, and the mortality of the plants was assessed at 3 days and 2 weeks post application (for some treatments). Mortality at these time points were enumerated out of the total plants germinated in each plot at the beginning of the assay. At both time points, the total number of dead plants and total number of plants at the beginning of the assay were recorded for each observation. A Probit model was used to calculate the LC50 values for each of the compounds explored in this assay. A formulation control (with no active ingredient) was screened against a number of plants and factored into the final probit model. This formulation control had little-to-no effect by itself.

## Cc1ccc(C(C)C)c(OCC(=O)O)c1 [thymyloxyacetic acid, 2-(2-isopropyl-5-methylphenoxy)acetic acid]
Waterhemp
  LC50 Value: 700 ppm
Waterhemp compared to bluegrass
  Selective Toxicity Compared to Bluegrass: 5
